{
  "source": "ChEMBL document CHEMBL1201862",
  "about": "“PubChem BioAssay data set” (2004)",
  "assay_in_all_cases": "NCI anticancer screen, dose series, 48 h",
  "key": {"786-0": {"test_system": "786-0"}, "A498": {"test_system": "A498"}, "A549": {"test_system": "A549"}, "ACHN": {"test_system": "ACHN"}, "BT-549": {"test_system": "BT-549"}, "CAKI-1": {"test_system": "CAKI-1"}, "CCRF-CEM": {"test_system": "CCRF-CEM"}, "COLO 205": {"test_system": "COLO 205"}, "DU-145": {"test_system": "DU-145"}, "EKVX": {"test_system": "EKVX"}, "HCC 2998": {"test_system": "HCC 2998"}, "HCT-116": {"test_system": "HCT-116"}, "HCT-15": {"test_system": "HCT-15"}, "HL-60": {"test_system": "HL-60"}, "HOP-62": {"test_system": "HOP-62"}, "HOP-92": {"test_system": "HOP-92"}, "HT-29": {"test_system": "HT-29"}, "Hs-578T": {"test_system": "Hs-578T"}, "IGROV-1": {"test_system": "IGROV-1"}, "KM12": {"test_system": "KM12"}, "LOX IMVI": {"test_system": "LOX IMVI"}, "M14": {"test_system": "M14"}, "MCF7": {"test_system": "MCF7"}, "MDA-MB-231": {"test_system": "MDA-MB-231"}, "MDA-MB-435": {"test_system": "MDA-MB-435"}, "MDA-N": {"test_system": "MDA-N"}, "MOLT-4": {"test_system": "MOLT-4"}, "Malme-3M": {"test_system": "Malme-3M"}, "NCI-H226": {"test_system": "NCI-H226"}, "NCI-H23": {"test_system": "NCI-H23"}, "NCI-H460": {"test_system": "NCI-H460"}, "NCI-H522": {"test_system": "NCI-H522"}, "NCI/ADR-RES": {"test_system": "NCI/ADR-RES"}, "OVCAR-3": {"test_system": "OVCAR-3"}, "OVCAR-4": {"test_system": "OVCAR-4"}, "OVCAR-5": {"test_system": "OVCAR-5"}, "OVCAR-8": {"test_system": "OVCAR-8"}, "PC-3": {"test_system": "PC-3"}, "RPMI-8226": {"test_system": "RPMI-8226"}, "RXF 393": {"test_system": "RXF 393"}, "SF-268": {"test_system": "SF-268"}, "SF-295": {"test_system": "SF-295"}, "SF-539": {"test_system": "SF-539"}, "SK-MEL-28": {"test_system": "SK-MEL-28"}, "SK-MEL-2": {"test_system": "SK-MEL-2"}, "SK-MEL-5": {"test_system": "SK-MEL-5"}, "SK-OV-3": {"test_system": "SK-OV-3"}, "SN12C": {"test_system": "SN12C"}, "SNB-19": {"test_system": "SNB-19"}, "SR": {"test_system": "SR"}, "SW-620": {"test_system": "SW-620"}, "T47D": {"test_system": "T47D"}, "TK-10": {"test_system": "TK-10"}, "U-251": {"test_system": "U-251"}, "UACC-257": {"test_system": "UACC-257"}, "UACC-62": {"test_system": "UACC-62"}, "UO-31": {"test_system": "UO-31"}},
  "note": "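Assay format: 96-well plates, 48-hour exposure. The concentration for 50% growth inhibition is given as GI50.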 The source made the active and inactive calls. Cut-off read from the data, not from the text of the source: active = GI50 up to about 1.1 µM and inactive = higher.",
  "data": [
    {"compound": "NC(Cn1ccc(=O)c(O)c1)C(=O)O", "note": "(configuration not stated) [MIMOSINE]", "values": [
      {"measurement": "GI50", "setting": "786-0", "result": "> 100 µM (inactive)"},
      {"measurement": "GI50", "setting": "A498", "result": "> 100 µM (inactive)"},
      {"measurement": "GI50", "setting": "A549", "result": "> 100 µM (inactive)"},
      {"measurement": "GI50", "setting": "ACHN", "result": "> 100 µM (inactive)"},
      {"measurement": "GI50", "setting": "BT-549", "result": "> 100 µM (inactive)"},
      {"measurement": "GI50", "setting": "CAKI-1", "result": "> 100 µM (inactive)"},
      {"measurement": "GI50", "setting": "CCRF-CEM", "result": "33.7 µM (inactive)"},
      {"measurement": "GI50", "setting": "COLO 205", "result": "> 100 µM (inactive)"},
      {"measurement": "GI50", "setting": "DU-145", "result": "> 100 µM (inactive)"},
      {"measurement": "GI50", "setting": "EKVX", "result": "> 100 µM (inactive)"},
      {"measurement": "GI50", "setting": "HCC 2998", "result": "> 100 µM (inactive)"},
      {"measurement": "GI50", "setting": "HCT-116", "result": "> 100 µM (inactive)"},
      {"measurement": "GI50", "setting": "HCT-15", "result": "> 100", "unit": "µM"},
      {"measurement": "GI50", "setting": "HL-60", "result": "81.5 µM (inactive)"},
      {"measurement": "GI50", "setting": "HOP-62", "result": "> 100 µM (inactive)"},
      {"measurement": "GI50", "setting": "HOP-92", "result": "> 100 µM (inactive)"},
      {"measurement": "GI50", "setting": "HT-29", "result": "> 100 µM (inactive)"},
      {"measurement": "GI50", "setting": "Hs-578T", "result": "> 100 µM (inactive)"},
      {"measurement": "GI50", "setting": "IGROV-1", "result": "> 100 µM (inactive)"},
      {"measurement": "GI50", "setting": "KM12", "result": "> 100 µM (inactive)"},
      {"measurement": "GI50", "setting": "LOX IMVI", "result": "> 100 µM (inactive)"},
      {"measurement": "GI50", "setting": "M14", "result": "> 100 µM (inactive)"},
      {"measurement": "GI50", "setting": "MCF7", "result": "> 100 µM (inactive)"},
      {"measurement": "GI50", "setting": "MDA-MB-231", "result": "> 100 µM (inactive)"},
      {"measurement": "GI50", "setting": "MDA-MB-435", "result": "> 100 µM (inactive)"},
      {"measurement": "GI50", "setting": "MDA-N", "result": "> 100 µM (inactive)"},
      {"measurement": "GI50", "setting": "MOLT-4", "result": "72.6 µM (inactive)"},
      {"measurement": "GI50", "setting": "Malme-3M", "result": "54.8 µM (inactive)"},
      {"measurement": "GI50", "setting": "NCI-H226", "result": "> 100 µM (inactive)"},
      {"measurement": "GI50", "setting": "NCI-H23", "result": "> 100 µM (inactive)"},
      {"measurement": "GI50", "setting": "NCI-H460", "result": "> 100 µM (inactive)"},
      {"measurement": "GI50", "setting": "NCI-H522", "result": "> 100 µM (inactive)"},
      {"measurement": "GI50", "setting": "NCI/ADR-RES", "result": "> 100 µM (inactive)"},
      {"measurement": "GI50", "setting": "OVCAR-3", "result": "> 100 µM (inactive)"},
      {"measurement": "GI50", "setting": "OVCAR-4", "result": "> 100 µM (inactive)"},
      {"measurement": "GI50", "setting": "OVCAR-5", "result": "> 100 µM (inactive)"},
      {"measurement": "GI50", "setting": "OVCAR-8", "result": "> 100 µM (inactive)"},
      {"measurement": "GI50", "setting": "PC-3", "result": "> 100 µM (inactive)"},
      {"measurement": "GI50", "setting": "RPMI-8226", "result": "> 100 µM (inactive)"},
      {"measurement": "GI50", "setting": "RXF 393", "result": "> 100 µM (inactive)"},
      {"measurement": "GI50", "setting": "SF-268", "result": "> 100 µM (inactive)"},
      {"measurement": "GI50", "setting": "SF-295", "result": "> 100 µM (inactive)"},
      {"measurement": "GI50", "setting": "SF-539", "result": "> 100 µM (inactive)"},
      {"measurement": "GI50", "setting": "SK-MEL-28", "result": "> 100 µM (inactive)"},
      {"measurement": "GI50", "setting": "SK-MEL-2", "result": "> 100 µM (inactive)"},
      {"measurement": "GI50", "setting": "SK-MEL-5", "result": "> 100 µM (inactive)"},
      {"measurement": "GI50", "setting": "SK-OV-3", "result": "> 100 µM (inactive)"},
      {"measurement": "GI50", "setting": "SN12C", "result": "> 100 µM (inactive)"},
      {"measurement": "GI50", "setting": "SNB-19", "result": "> 100 µM (inactive)"},
      {"measurement": "GI50", "setting": "SR", "result": "49.4 µM (inactive)"},
      {"measurement": "GI50", "setting": "SW-620", "result": "> 100 µM (inactive)"},
      {"measurement": "GI50", "setting": "T47D", "result": "> 100 µM (inactive)"},
      {"measurement": "GI50", "setting": "TK-10", "result": "> 100 µM (inactive)"},
      {"measurement": "GI50", "setting": "U-251", "result": "> 100 µM (inactive)"},
      {"measurement": "GI50", "setting": "UACC-257", "result": "> 100 µM (inactive)"},
      {"measurement": "GI50", "setting": "UACC-62", "result": "> 100 µM (inactive)"},
      {"measurement": "GI50", "setting": "UO-31", "result": "> 100 µM (inactive)"}
    ]}
  ]
}
